From the NIST ThermoML archive (doi:10.1021/je060200b)

How the values were obtained:
[1] = molar heat capacity at constant pressure; details: 101 kPa, Liquid
[2] = 101 kPa, Liquid; for speed of sound: Pulse-echo method; for mass density: Vibrating tube method
[3] = xn = mol fraction of the nth substance listed; details: 101 kPa, Liquid, x2 = 0; for mass density: Vibrating tube method; for speed of sound: Pulse-echo method
[4] = molar heat capacity at constant pressure; xn = mol fraction of the nth substance listed; details: 101 kPa, Liquid, x2 = 0

BrCCCCCBr [1,5-dibromopentane]
Details	mass density [kg/m3]	molar heat capacity at constant pressure [J/K/mol]	speed of sound [m/s]
[1], 293.15 K	–	219.76	–
[1], 294.15 K	–	219.98	–
[1], 295.15 K	–	220.19	–
[1], 296.15 K	–	220.41	–
[1], 297.15 K	–	220.66	–
[1], 298.15 K	–	220.84	–
[1], 299.15 K	–	221.1	–
[1], 300.15 K	–	221.28	–
[1], 301.15 K	–	221.49	–
[1], 302.15 K	–	221.73	–
[1], 303.15 K	–	221.95	–
[1], 304.15 K	–	222.17	–
[1], 305.15 K	–	222.41	–
[1], 306.15 K	–	222.63	–
[1], 307.15 K	–	222.85	–
[1], 308.15 K	–	223.09	–
[1], 309.15 K	–	223.31	–
[1], 310.15 K	–	223.56	–
[1], 311.15 K	–	223.78	–
[1], 312.15 K	–	224.03	–
[1], 313.15 K	–	224.26	–
[2], 292.38 K	–	–	1149.5
[2], 292.52 K	1699.54	–	–
[2], 298.05 K	1691.87	–	–
[2], 298.37 K	–	–	1133
[2], 303.06 K	1684.89	–	–
[2], 303.39 K	–	–	1119.3
[2], 308.08 K	1678.03	–	–
[2], 308.38 K	–	–	1105.8
[2], 314.36 K	–	–	1089.7
[2], 314.66 K	1668.75	–	–

CCCCCCC [heptane]
Details	mass density [kg/m3]	molar heat capacity at constant pressure [J/K/mol]	speed of sound [m/s]
[1], 293.15 K	–	222.87	–
[1], 294.15 K	–	223.23	–
[1], 295.15 K	–	223.6	–
[1], 296.15 K	–	223.97	–
[1], 297.15 K	–	224.35	–
[1], 298.15 K	–	224.72	–
[1], 299.15 K	–	225.1	–
[1], 300.15 K	–	225.47	–
[1], 301.15 K	–	225.87	–
[1], 302.15 K	–	226.22	–
[1], 303.15 K	–	226.61	–
[1], 304.15 K	–	227	–
[1], 305.15 K	–	227.4	–
[1], 306.15 K	–	227.75	–
[1], 307.15 K	–	228.14	–
[1], 308.15 K	–	228.54	–
[1], 309.15 K	–	228.95	–
[1], 310.15 K	–	229.3	–
[1], 311.15 K	–	229.71	–
[1], 312.15 K	–	230.11	–
[1], 313.15 K	–	230.51	–
[2], 292.7 K	684.18	–	–
[2], 292.84 K	–	–	1153.7
[2], 297.98 K	679.88	–	–
[2], 298.84 K	–	–	1127.7
[2], 302.94 K	675.72	–	–
[2], 303.8 K	–	–	1106.4
[2], 308.06 K	671.47	–	–
[2], 308.78 K	–	–	1085.1
[2], 314.1 K	666.39	–	–
[2], 314.87 K	–	–	1059.1

CCCCCCC [heptane] + BrCCCCCBr
Details	mass density [kg/m3]	molar heat capacity at constant pressure [J/K/mol]	speed of sound [m/s]
[3], 292.7 K	684.18	–	–
[3], 292.84 K	–	–	1153.7
[3], 297.98 K	679.88	–	–
[3], 298.84 K	–	–	1127.7
[3], 302.94 K	675.72	–	–
[3], 303.8 K	–	–	1106.4
[3], 308.06 K	671.47	–	–
[3], 308.78 K	–	–	1085.1
[3], 314.1 K	666.39	–	–
[3], 314.87 K	–	–	1059.1
[4], 293.15 K	–	222.87	–
[4], 294.15 K	–	223.23	–
[4], 295.15 K	–	223.6	–
[4], 296.15 K	–	223.97	–
[4], 297.15 K	–	224.35	–
[4], 298.15 K	–	224.72	–
[4], 299.15 K	–	225.1	–
[4], 300.15 K	–	225.47	–
[4], 301.15 K	–	225.87	–
[4], 302.15 K	–	226.22	–
[4], 303.15 K	–	226.61	–
[4], 304.15 K	–	227	–
[4], 305.15 K	–	227.4	–
[4], 306.15 K	–	227.75	–
[4], 307.15 K	–	228.14	–
[4], 308.15 K	–	228.54	–
[4], 309.15 K	–	228.95	–
[4], 310.15 K	–	229.3	–
[4], 311.15 K	–	229.71	–
[4], 312.15 K	–	230.11	–
[4], 313.15 K	–	230.51	–
